# Key:
# Test in all cases: relative viability (nuclei count vs DMSO), 5 days (fraction); higher = more cells survive
# IU1-47 + Pemetrexed = compound: CC1=CC(=C(N1C2=CC=C(C=C2)Cl)C)C(=O)CN3CCCCC3 [IU1-47] + Nc1nc2[nH]cc(CCc3ccc(C(=O)N[C@@H](CCC(=O)O)C(=O)O)cc3)c2c(=O)[nH]1 [Pemetrexed] (partner 0.2 µM)
# Procedure, shortened: (§1)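 Lung cancer cell lines, seeded in 1536-well plates, were treated the following day by pin tool with a single drug or with five library-drug doses (not always all listed) in √10 steps on top of a fixed anchor-drug dose. Cells were fixed and nuclei stained in one step after 5 days, and nuclei were counted. Relative viability is the nuclei count for treated wells divided by that for vehicle wells, reported as medians of duplicate plates.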
# FG-4592 + Trametinib = compound: Cc1nc(C(=O)NCC(=O)O)c(O)c2ccc(Oc3ccccc3)cc12 [FG-4592] + CC(=O)Nc1cccc(-n2c(=O)n(C3CC3)c(=O)c3c(Nc4ccc(I)cc4F)n(C)c(=O)c(C)c32)c1 [Trametinib] (partner 0.02 µM)
# Procedure, shortened: as §1
# FG-4592 + Foretinib = compound: Cc1nc(C(=O)NCC(=O)O)c(O)c2ccc(Oc3ccccc3)cc12 [FG-4592] + COc1cc2c(Oc3ccc(NC(=O)C4(C(=O)Nc5ccc(F)cc5)CC4)cc3F)ccnc2cc1OCCCN1CCOCC1 [Foretinib] (partner 0.25 µM)
# Procedure, shortened: as §1
# FG-4592 + Pemetrexed = compound: Cc1nc(C(=O)NCC(=O)O)c(O)c2ccc(Oc3ccccc3)cc12 [FG-4592] + Nc1nc2[nH]cc(CCc3ccc(C(=O)N[C@@H](CCC(=O)O)C(=O)O)cc3)c2c(=O)[nH]1 [Pemetrexed] (partner 0.2 µM)
# Procedure, shortened: as §1
cell line,measurement,setting,value
NCI-H3122,relative viability,IU1-47 + Pemetrexed; first compound 0.08 µM,0.197
same,relative viability,IU1-47 + Pemetrexed; first compound 0.253 µM,0.206
same,relative viability,IU1-47 + Pemetrexed; first compound 0.8 µM,0.204
same,relative viability,IU1-47 + Pemetrexed; first compound 2.53 µM,0.218
same,relative viability,IU1-47 + Pemetrexed; first compound 8 µM,0.205
same,relative viability,FG-4592 + Trametinib; first compound 0.08 µM,0.19
same,relative viability,FG-4592 + Trametinib; first compound 0.253 µM,0.244
same,relative viability,FG-4592 + Trametinib; first compound 0.8 µM,0.196
same,relative viability,FG-4592 + Trametinib; first compound 2.53 µM,0.264
same,relative viability,FG-4592 + Trametinib; first compound 8 µM,0.119
same,relative viability,FG-4592 + Foretinib; first compound 0.08 µM,0.957
same,relative viability,FG-4592 + Foretinib; first compound 0.253 µM,0.952
same,relative viability,FG-4592 + Foretinib; first compound 0.8 µM,0.934
same,relative viability,FG-4592 + Foretinib; first compound 2.53 µM,0.993
same,relative viability,FG-4592 + Foretinib; first compound 8 µM,0.921
same,relative viability,FG-4592 + Pemetrexed; first compound 0.08 µM,0.197
same,relative viability,FG-4592 + Pemetrexed; first compound 0.253 µM,0.191
same,relative viability,FG-4592 + Pemetrexed; first compound 0.8 µM,0.194
same,relative viability,FG-4592 + Pemetrexed; first compound 2.53 µM,0.187
same,relative viability,FG-4592 + Pemetrexed; first compound 8 µM,0.211
HCC-827,relative viability,IU1-47 + Pemetrexed; first compound 0.08 µM,0.26
same,relative viability,IU1-47 + Pemetrexed; first compound 0.253 µM,0.282
same,relative viability,IU1-47 + Pemetrexed; first compound 0.8 µM,0.275
same,relative viability,IU1-47 + Pemetrexed; first compound 2.53 µM,0.291
same,relative viability,IU1-47 + Pemetrexed; first compound 8 µM,0.26
same,relative viability,FG-4592 + Trametinib; first compound 0.08 µM,0.495
same,relative viability,FG-4592 + Trametinib; first compound 0.253 µM,0.491
same,relative viability,FG-4592 + Trametinib; first compound 0.8 µM,0.48
same,relative viability,FG-4592 + Trametinib; first compound 2.53 µM,0.532
same,relative viability,FG-4592 + Trametinib; first compound 8 µM,0.506
same,relative viability,FG-4592 + Foretinib; first compound 0.08 µM,1.06
same,relative viability,FG-4592 + Foretinib; first compound 0.253 µM,0.899
same,relative viability,FG-4592 + Foretinib; first compound 0.8 µM,1.04
same,relative viability,FG-4592 + Foretinib; first compound 2.53 µM,1.03
same,relative viability,FG-4592 + Foretinib; first compound 8 µM,1.06
same,relative viability,FG-4592 + Pemetrexed; first compound 0.08 µM,0.232
same,relative viability,FG-4592 + Pemetrexed; first compound 0.253 µM,0.255
same,relative viability,FG-4592 + Pemetrexed; first compound 0.8 µM,0.235
same,relative viability,FG-4592 + Pemetrexed; first compound 2.53 µM,0.26
same,relative viability,FG-4592 + Pemetrexed; first compound 8 µM,0.255
SK-LU-1,relative viability,IU1-47 + Pemetrexed; first compound 0.08 µM,0.981
same,relative viability,IU1-47 + Pemetrexed; first compound 0.253 µM,1.05
same,relative viability,IU1-47 + Pemetrexed; first compound 0.8 µM,1.03
same,relative viability,IU1-47 + Pemetrexed; first compound 2.53 µM,1.02
same,relative viability,IU1-47 + Pemetrexed; first compound 8 µM,0.887
same,relative viability,FG-4592 + Trametinib; first compound 0.08 µM,0.402
same,relative viability,FG-4592 + Trametinib; first compound 0.253 µM,0.395
same,relative viability,FG-4592 + Trametinib; first compound 0.8 µM,0.461
same,relative viability,FG-4592 + Trametinib; first compound 2.53 µM,0.422
same,relative viability,FG-4592 + Trametinib; first compound 8 µM,0.379
same,relative viability,FG-4592 + Foretinib; first compound 0.08 µM,0.866
same,relative viability,FG-4592 + Foretinib; first compound 0.253 µM,0.646
same,relative viability,FG-4592 + Foretinib; first compound 0.8 µM,0.767
same,relative viability,FG-4592 + Foretinib; first compound 2.53 µM,0.881
same,relative viability,FG-4592 + Foretinib; first compound 8 µM,0.631
same,relative viability,FG-4592 + Pemetrexed; first compound 0.08 µM,0.949
same,relative viability,FG-4592 + Pemetrexed; first compound 0.253 µM,0.842
same,relative viability,FG-4592 + Pemetrexed; first compound 0.8 µM,1.05
same,relative viability,FG-4592 + Pemetrexed; first compound 2.53 µM,1.06
same,relative viability,FG-4592 + Pemetrexed; first compound 8 µM,1.05
NCI-H1975,relative viability,IU1-47 + Pemetrexed; first compound 0.08 µM,0.278
same,relative viability,IU1-47 + Pemetrexed; first compound 0.253 µM,0.289
same,relative viability,IU1-47 + Pemetrexed; first compound 0.8 µM,0.297
same,relative viability,IU1-47 + Pemetrexed; first compound 2.53 µM,0.299
same,relative viability,IU1-47 + Pemetrexed; first compound 8 µM,0.255
same,relative viability,FG-4592 + Trametinib; first compound 0.08 µM,0.33
same,relative viability,FG-4592 + Trametinib; first compound 0.253 µM,0.292
same,relative viability,FG-4592 + Trametinib; first compound 0.8 µM,0.337
same,relative viability,FG-4592 + Trametinib; first compound 2.53 µM,0.24
same,relative viability,FG-4592 + Trametinib; first compound 8 µM,0.184
same,relative viability,FG-4592 + Foretinib; first compound 0.08 µM,0.986
same,relative viability,FG-4592 + Foretinib; first compound 0.253 µM,0.949
same,relative viability,FG-4592 + Foretinib; first compound 0.8 µM,1.07
same,relative viability,FG-4592 + Foretinib; first compound 2.53 µM,0.956
same,relative viability,FG-4592 + Foretinib; first compound 8 µM,0.833
same,relative viability,FG-4592 + Pemetrexed; first compound 0.08 µM,0.27
same,relative viability,FG-4592 + Pemetrexed; first compound 0.253 µM,0.293
same,relative viability,FG-4592 + Pemetrexed; first compound 0.8 µM,0.292
same,relative viability,FG-4592 + Pemetrexed; first compound 2.53 µM,0.268
same,relative viability,FG-4592 + Pemetrexed; first compound 8 µM,0.307
NCI-H1651,relative viability,IU1-47 + Pemetrexed; first compound 0.08 µM,0.587
same,relative viability,IU1-47 + Pemetrexed; first compound 0.253 µM,0.559
same,relative viability,IU1-47 + Pemetrexed; first compound 0.8 µM,0.616
same,relative viability,IU1-47 + Pemetrexed; first compound 2.53 µM,0.311
same,relative viability,IU1-47 + Pemetrexed; first compound 8 µM,0.451
same,relative viability,FG-4592 + Trametinib; first compound 0.08 µM,0.85
same,relative viability,FG-4592 + Trametinib; first compound 0.253 µM,0.836
same,relative viability,FG-4592 + Trametinib; first compound 0.8 µM,0.76
same,relative viability,FG-4592 + Trametinib; first compound 2.53 µM,0.774
same,relative viability,FG-4592 + Trametinib; first compound 8 µM,0.82
same,relative viability,FG-4592 + Foretinib; first compound 0.08 µM,0.863
same,relative viability,FG-4592 + Foretinib; first compound 0.253 µM,0.773
same,relative viability,FG-4592 + Foretinib; first compound 0.8 µM,0.88
same,relative viability,FG-4592 + Foretinib; first compound 2.53 µM,0.901
same,relative viability,FG-4592 + Foretinib; first compound 8 µM,0.839
same,relative viability,FG-4592 + Pemetrexed; first compound 0.08 µM,0.591
same,relative viability,FG-4592 + Pemetrexed; first compound 0.253 µM,0.57
same,relative viability,FG-4592 + Pemetrexed; first compound 0.8 µM,0.583
same,relative viability,FG-4592 + Pemetrexed; first compound 2.53 µM,0.588
same,relative viability,FG-4592 + Pemetrexed; first compound 8 µM,0.508

# Source: the supplement of paper PMC10307832
